These results are taken from ChEMBL document CHEMBL1201862, “PubChem BioAssay data set” (2004).

Test [1] concerns the target T1, Oxysterols receptor LXR-beta (Homo sapiens, UniProt P55055).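 Note: agonist activity at LXR measured by a cell-based luminescence readout across a dose range, run as a counterscreen for daf-12 agonists; HEK293 cells with Gal4-LXR fusion and GAL4-driven luciferase reporter; potency for activation of Gal4-LXR reporter so compounds are agonists.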
T1 sequence (P55055 whole entry): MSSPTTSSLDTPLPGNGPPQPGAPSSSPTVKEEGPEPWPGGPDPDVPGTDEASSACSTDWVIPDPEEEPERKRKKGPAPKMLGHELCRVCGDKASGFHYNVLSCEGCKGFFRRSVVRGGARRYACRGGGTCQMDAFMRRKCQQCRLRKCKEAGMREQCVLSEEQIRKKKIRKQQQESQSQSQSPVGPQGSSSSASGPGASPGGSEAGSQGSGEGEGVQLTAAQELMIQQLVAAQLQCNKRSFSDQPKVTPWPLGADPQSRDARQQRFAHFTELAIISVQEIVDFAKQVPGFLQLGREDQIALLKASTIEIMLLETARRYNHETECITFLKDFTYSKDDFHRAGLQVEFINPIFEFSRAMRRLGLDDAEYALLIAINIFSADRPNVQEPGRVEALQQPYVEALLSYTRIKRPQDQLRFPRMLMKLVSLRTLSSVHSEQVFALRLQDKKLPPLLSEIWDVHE
The format is functional, cell-based.

Test [2] is described as follows: toxicity to human hepatoma HepG2 cells – cell-based, cherry-picked samples, cytotoxicity control, dose response (AID 1159577). The format is functional.
A short description of test [3]: P. falciparum Dd2 growth inhibitors, dose response, SYBR Green, cherry-picked samples (AID 1159567). In kind it is functional, cell-based.
The nature of test [4]: growth inhibition of PfATP4-mutant resistant parasites – NITD609-resistant line, SYBR Green, dry powder, dose response (AID 1159571).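 Note: parasites synchronized at ring stage by sorbitol before testing.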 The format is functional, cell-based.
The nature of test [5]: toxicity to human HepG2 hepatoma cells – cell-based, plate reader, dry powder samples, cytotoxicity control, dose response (AID 1159569).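 Note: inhibitor potency with signal falling toward the positive control level.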 In kind it is functional.
A short description of test [6]: Dd2 malaria parasite growth inhibition potency – SYBR Green, dry powder samples, dose response (AID 1159566).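 Note: potency for growth inhibition with lower SYBR green DNA signal.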 The format is functional, cell-based.
The nature of test [7]: growth inhibition of yeast DHODH-expressing 3D7 parasites – SYBR Green, dry powder samples, dose response (AID 1159570).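 Note: parasite growth measured after 72 hours of compound exposure.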 The format is functional, cell-based.
Test [8] concerns the target RNA-editing ligase 1, mitochondrial (Trypanosoma brucei brucei, UniProt P86926). Put plainly: inhibition of trypanosome RNA editing ligase – biochemical, fluorescence, Trypanosoma brucei, dose response (AID 1117295). In kind it is functional.
The nature of test [9]: loss of viability in HepG2 cells – cell-based, CellTiter-Glo, cherry-picked, cytotoxicity control for Shn3 inhibitor project, dose response (AID 624134). In kind it is functional.
The nature of test [10]: alpha-synuclein stem-loop luciferase translation blockers – H4 neuroglioma cells, luminescence, confirmation (AID 1988). In kind it is functional, cell-based.
The nature of test [11]: non-specific 3'UTR reporter inhibition in Clone20-Shn3RL – cell-based, Renilla luciferase, cherry-picked, counter-screen for Shn3 inhibitor project, dose response (AID 624133). The format is functional.
The subject of a further test is A549. Put plainly: viability loss in A549 cells – cell-based, plate reader, cherry-pick samples, cytotoxicity control, dose response (AID 687028). The format is functional. Conditions: Homo sapiens.
Test [12] is described as follows: Luminescence Cell-Based Dose Response HTS to Identify Inhibitors of 5'UTR Stem-Loop Driven Prion Protein mRNA Translation in H4 Neuroglioblastoma Cells. [Related pubchem assays: 1827 (Project Summary), 1813 (Primary HTS)]. The format is functional.
In test [13] the target is T2, Ubiquitin-conjugating enzyme E2 N (Homo sapiens, UniProt P61088).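 Note: Dose-response confirmation in a TR-FRET assay detecting UBC13-driven polyubiquitin chain formation, inhibition measured.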
T2 sequence (P61088 whole entry): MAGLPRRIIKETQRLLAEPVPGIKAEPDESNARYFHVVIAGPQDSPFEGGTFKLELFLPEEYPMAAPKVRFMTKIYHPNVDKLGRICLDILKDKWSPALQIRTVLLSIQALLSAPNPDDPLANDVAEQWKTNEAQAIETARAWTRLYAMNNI
The format is functional.

The nature of test [14]: reduction of Shn3 3'UTR-driven luciferase in osteoblasts – cell-based, Clone20 osteoblasts, firefly luciferase, cherry-picked, dose response (AID 624132).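 Note: firefly luciferase luminescence from reporter carrying the Shn3 3'UTR in osteoblasts.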 The format is functional.
A short description of test [15]: luciferase reporter signal suppression in cells – H4 neuroglioma cells, luminescence, dose response (AID 1990). In kind it is functional, cell-based.
Test [16] in a line: viability of uninfected HEp-2 cells – cell-based, HTS, cytotoxicity control for RSV inhibitor project, dose response (AID 2410). In kind it is functional. The following applies: human respiratory syncytial virus.
Test [17] can be described thus: cytotoxicity toward Colo320 cells – cell-based, CellTiter-Glo luminescence, IC50, dose response (AID 1117334). In kind it is functional. The following applies: COLO 320.
The test system of the next test is SN12K1. Put plainly: cells. The following applies: Homo sapiens. The format is functional.
The nature of test [18]: CellTiter-Glo luminescence survival assay, SW480 colon tumor line, concentration-response curve, half-maximal inhibitory concentration (AID 1117338). In kind it is functional.
Test [19] can be described thus: SNU-C1 cell viability reduction, dose response, CellTiter-Glo luminescence (AID 1117323). The format is functional, cell-based.
Test [20] is described as follows: rise of 4N DNA cells, HeLa – IC50, dose response (AID 1117351). In kind it is functional, cell-based.
Test [21] is described as follows: rise of 2N DNA cells, HeLa – IC50, dose response (AID 1117349). The format is functional, cell-based.
The nature of test [22]: Reduced DLD-1 viability, concentration-response, CellTiter-Glo luminescence (AID 1117352). In kind it is functional.
A short description of test [23]: general cell-killing toxicity readout – plate reader, dry powder samples, cytotoxicity control for PAX8 inhibitor project, dose response (AID 743021). In kind it is functional, cell-based.
Another test has as its system P388. The test is described as follows: cells. In kind it is functional. The following applies: Mus musculus.
The nature of test [24]: cytotoxicity toward HT-29 cells – cell-based, CellTiter-Glo luminescence, IC50, dose response (AID 1117330). In kind it is functional.
Test [25] in a line: HCT116 cell viability decrease, GSK3B pretreatment – CellTiter-Glo, IC50, dose response (AID 1117339). The format is functional. Conditions: HCT-116.
Test [26] can be described thus: cytotoxicity toward HCT116 cells – cell-based, CellTiter-Glo luminescence, IC50, dose response (AID 1117332). The format is functional. Conditions: HCT-116.
Test [27] is described as follows: RKO cell viability reduction, dose response, CellTiter-Glo luminescence (AID 1117322). The format is functional.
A further test deals with P388/ADR. The test is described as follows: cells. The format is functional. Conditions: Mus musculus.
In test [28] the target is T3, Small ubiquitin-related modifier 1 (Homo sapiens, UniProt P63165). Put plainly: SUMO1 protein-protein binding blockers, potency – biochemical, FRET, dose response (AID 624383). The format is functional. The following applies: read-out: IC50_Mean.
T3 sequence (P63165 whole entry): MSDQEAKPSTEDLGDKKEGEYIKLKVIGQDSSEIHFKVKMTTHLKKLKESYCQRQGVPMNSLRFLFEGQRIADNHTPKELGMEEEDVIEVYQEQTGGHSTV
The target in test [29] is T3, Small ubiquitin-related modifier 1. The test is described as follows: SUMO1 protein interaction blockers, potency – biochemical, fluorescence polarization, uHTS hits, dose response (AID 624382). The format is functional. The following applies: read-out: IC50_Mean.
For test [30], the target named is 1-phosphatidylinositol 4,5-bisphosphate phosphodiesterase beta-3 (Homo sapiens, UniProt Q01970). Put plainly: Fluorescence-based biochemical high throughput dose response assay to identify inhibitors of phospholipase C isozymes (PLC-B3).
Sequence of 1-phosphatidylinositol 4,5-bisphosphate phosphodiesterase beta-3 (Q01970 whole entry): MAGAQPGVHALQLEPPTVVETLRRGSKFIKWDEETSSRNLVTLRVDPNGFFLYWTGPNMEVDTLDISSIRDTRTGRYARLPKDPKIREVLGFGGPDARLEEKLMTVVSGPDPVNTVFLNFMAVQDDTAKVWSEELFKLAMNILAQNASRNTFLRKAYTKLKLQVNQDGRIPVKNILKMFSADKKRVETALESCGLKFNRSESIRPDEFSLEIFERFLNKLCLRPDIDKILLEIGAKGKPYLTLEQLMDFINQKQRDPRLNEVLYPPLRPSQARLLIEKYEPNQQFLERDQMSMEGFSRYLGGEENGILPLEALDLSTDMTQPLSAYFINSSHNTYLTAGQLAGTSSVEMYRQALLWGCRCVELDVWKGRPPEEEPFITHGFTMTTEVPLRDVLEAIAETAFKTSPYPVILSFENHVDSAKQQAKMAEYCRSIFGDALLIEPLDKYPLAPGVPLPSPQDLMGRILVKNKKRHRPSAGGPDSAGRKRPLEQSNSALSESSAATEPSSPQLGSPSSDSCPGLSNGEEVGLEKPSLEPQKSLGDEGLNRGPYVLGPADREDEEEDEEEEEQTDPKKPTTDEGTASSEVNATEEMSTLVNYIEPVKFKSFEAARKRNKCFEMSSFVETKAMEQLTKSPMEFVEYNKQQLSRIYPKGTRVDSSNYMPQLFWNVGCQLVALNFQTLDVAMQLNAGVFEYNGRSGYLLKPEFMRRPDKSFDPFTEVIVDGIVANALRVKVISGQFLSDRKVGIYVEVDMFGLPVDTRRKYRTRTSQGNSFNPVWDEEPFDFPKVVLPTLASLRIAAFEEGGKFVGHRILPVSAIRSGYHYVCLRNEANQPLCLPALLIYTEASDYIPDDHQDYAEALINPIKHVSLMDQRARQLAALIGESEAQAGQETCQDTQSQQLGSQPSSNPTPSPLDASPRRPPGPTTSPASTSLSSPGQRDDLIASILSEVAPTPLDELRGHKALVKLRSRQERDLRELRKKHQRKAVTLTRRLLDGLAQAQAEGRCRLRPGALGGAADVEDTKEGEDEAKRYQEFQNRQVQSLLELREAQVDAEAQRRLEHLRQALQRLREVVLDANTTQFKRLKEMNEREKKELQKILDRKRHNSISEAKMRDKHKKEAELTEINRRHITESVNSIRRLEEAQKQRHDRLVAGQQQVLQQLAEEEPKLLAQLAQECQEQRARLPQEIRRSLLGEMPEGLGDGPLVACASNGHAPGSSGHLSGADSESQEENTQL
In test [31] the target is 1-phosphatidylinositol 4,5-bisphosphate phosphodiesterase gamma-1 (Homo sapiens, UniProt P19174). Put plainly: Counterscreen for inhibitors of phospholipase C isozymes (PLC-B3): Fluorescence-based biochemical high throughput dose response assay to identify inhibitors of phospholipase C isozymes (PLC-gamma1).
Sequence of 1-phosphatidylinositol 4,5-bisphosphate phosphodiesterase gamma-1 (P19174 whole entry): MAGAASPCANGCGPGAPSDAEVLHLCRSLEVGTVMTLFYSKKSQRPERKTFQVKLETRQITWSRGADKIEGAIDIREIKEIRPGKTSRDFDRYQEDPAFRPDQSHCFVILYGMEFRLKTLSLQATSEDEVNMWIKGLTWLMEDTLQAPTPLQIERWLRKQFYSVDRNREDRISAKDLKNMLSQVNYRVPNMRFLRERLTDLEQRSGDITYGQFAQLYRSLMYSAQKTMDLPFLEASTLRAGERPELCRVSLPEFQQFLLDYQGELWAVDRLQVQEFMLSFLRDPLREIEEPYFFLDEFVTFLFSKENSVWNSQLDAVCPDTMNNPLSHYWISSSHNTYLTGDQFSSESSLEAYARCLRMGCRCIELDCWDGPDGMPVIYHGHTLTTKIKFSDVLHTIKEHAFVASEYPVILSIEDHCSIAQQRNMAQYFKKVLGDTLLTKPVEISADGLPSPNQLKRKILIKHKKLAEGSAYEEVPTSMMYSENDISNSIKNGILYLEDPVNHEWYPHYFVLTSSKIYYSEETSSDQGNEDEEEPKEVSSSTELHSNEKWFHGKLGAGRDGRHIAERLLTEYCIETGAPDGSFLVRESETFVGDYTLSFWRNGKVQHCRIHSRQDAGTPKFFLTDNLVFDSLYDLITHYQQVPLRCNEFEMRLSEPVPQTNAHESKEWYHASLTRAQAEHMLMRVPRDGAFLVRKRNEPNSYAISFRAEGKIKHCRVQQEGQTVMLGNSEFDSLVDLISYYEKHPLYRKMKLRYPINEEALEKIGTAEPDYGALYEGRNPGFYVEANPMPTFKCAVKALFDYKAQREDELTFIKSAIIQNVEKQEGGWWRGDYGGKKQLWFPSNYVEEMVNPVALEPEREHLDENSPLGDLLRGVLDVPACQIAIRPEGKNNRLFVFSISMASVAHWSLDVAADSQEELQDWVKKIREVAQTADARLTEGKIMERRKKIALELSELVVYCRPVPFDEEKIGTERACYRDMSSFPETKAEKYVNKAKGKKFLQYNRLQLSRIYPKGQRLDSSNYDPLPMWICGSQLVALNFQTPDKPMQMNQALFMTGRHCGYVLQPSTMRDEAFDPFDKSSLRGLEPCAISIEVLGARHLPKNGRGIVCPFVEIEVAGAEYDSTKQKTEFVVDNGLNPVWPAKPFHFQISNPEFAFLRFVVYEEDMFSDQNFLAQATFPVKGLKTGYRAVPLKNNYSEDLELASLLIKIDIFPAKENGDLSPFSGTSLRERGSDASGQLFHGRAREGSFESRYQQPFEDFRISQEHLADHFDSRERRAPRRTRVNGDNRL
A short description of test [32]: reduced cellular PGC1a acetyl-lysine signal – cell-based, cherry-picked samples, dose response (AID 720514).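 Note: potency may reflect raised or lowered acetylation signal.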 In kind it is functional.
For test [33], the target named is Induced myeloid leukemia cell differentiation protein Mcl-1 (Homo sapiens, UniProt Q07820). In kind it is functional.
Sequence of Induced myeloid leukemia cell differentiation protein Mcl-1 (Q07820 whole entry): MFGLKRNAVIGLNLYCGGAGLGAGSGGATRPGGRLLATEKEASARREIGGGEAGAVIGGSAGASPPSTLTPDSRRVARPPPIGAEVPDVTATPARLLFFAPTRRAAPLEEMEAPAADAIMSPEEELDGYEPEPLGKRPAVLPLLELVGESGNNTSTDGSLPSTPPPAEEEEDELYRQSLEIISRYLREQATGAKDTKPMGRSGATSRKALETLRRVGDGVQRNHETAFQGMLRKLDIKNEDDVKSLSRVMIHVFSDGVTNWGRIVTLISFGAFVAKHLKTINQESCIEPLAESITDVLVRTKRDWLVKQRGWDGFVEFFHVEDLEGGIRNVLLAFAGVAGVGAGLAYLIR
Test [34] is described as follows: viability of HCT116 lacking mutant beta-catenin – cell-based, human colon tumor, dose response (AID 1045).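 Note: HCT116 colon tumor cells with beta catenin knocked out; cells exposed to compound for 60 hours.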 In kind it is functional.
Test [35] in a line: viability of PTEN-deleted HCT116 cells – cell-based, HCT116 PTEN knockout, dose response (AID 1047).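 Note: HCT116 colon tumor cells with PTEN knocked out; cells exposed to compound for 60 hours before readout; potency for loss of cell viability measured by luminescence.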 The format is functional.
The target of test [36] is T4, Microphthalmia-associated transcription factor (Homo sapiens, UniProt O75030).
T4 sequence (O75030 whole entry): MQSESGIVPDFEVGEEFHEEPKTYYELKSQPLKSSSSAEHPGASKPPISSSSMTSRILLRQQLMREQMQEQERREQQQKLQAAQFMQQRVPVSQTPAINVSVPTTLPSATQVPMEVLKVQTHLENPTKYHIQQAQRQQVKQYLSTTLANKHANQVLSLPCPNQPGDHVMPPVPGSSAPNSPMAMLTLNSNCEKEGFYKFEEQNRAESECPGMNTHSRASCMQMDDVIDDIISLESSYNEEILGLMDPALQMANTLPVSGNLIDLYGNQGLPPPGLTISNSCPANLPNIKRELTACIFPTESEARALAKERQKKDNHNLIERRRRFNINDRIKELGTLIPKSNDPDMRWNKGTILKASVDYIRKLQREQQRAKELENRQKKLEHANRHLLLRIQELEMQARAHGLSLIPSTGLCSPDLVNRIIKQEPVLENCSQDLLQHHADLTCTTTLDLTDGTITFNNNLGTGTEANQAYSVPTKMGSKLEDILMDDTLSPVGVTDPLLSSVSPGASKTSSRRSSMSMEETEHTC
Put plainly: reducers of TRPM1 reporter luminescence, concentration series – cell-based, SK-MEL-5, cherry-picked, set 3, MITF inhibitor project, dose response (AID 493073).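 Note: SK-MEL-5 melanoma cells with luciferase driven by the MITF target TRPM1 promoter.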 The format is functional.

Molecules are shown by their SMILES. Calls of active or inactive are those of the source. A value given as a limit tells only on which side of the number the result lay.

Sequence of RNA-editing ligase 1, mitochondrial (P86926 whole entry): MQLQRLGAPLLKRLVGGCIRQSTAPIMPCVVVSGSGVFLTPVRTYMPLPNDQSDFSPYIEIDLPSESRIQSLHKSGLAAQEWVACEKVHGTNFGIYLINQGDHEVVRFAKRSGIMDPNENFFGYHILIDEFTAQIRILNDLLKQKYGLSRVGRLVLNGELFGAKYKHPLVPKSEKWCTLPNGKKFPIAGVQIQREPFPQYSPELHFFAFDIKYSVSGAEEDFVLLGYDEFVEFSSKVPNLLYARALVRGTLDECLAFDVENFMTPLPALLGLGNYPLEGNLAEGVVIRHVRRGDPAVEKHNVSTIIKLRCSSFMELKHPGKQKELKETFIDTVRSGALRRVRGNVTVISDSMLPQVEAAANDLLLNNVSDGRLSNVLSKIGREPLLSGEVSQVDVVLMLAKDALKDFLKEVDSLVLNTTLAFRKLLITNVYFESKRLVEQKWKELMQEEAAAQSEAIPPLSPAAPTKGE

Regarding `OCCN1CCN(c2cnc(-c3ccsc3)cn2)CC1`, the EC50 in test [1] is > 67.5 µM (inactive).

As for `COc1ccc2c3c(n(C)c2c1)[C@H](CO)N(Cc1ccc(Cl)cc1)CC31CCN(CC2CC2)CC1`, the AC50 in [2] is > 39 µM (inactive); in test [3] it was 2.33 µM (active); in [4] it was 2.65 µM (active); in test [5], 19.8 µM (active); in [6], 2.23 µM (active); in test [7], 2.85 µM (active).

Regarding `COC(=O)C1=C(C)N(Cc2cccc(C(F)(F)F)c2)C(NCC2CC2)=NC1c1ccccc1C(F)(F)F` (stereo unspecified), in test [8], the IC50 is > 96.6 µM (inactive).

Consider `CCc1ccc(O)c(CNCCNCc2cc(CC)ccc2O)c1`, for which the AC50 in test [9] was 15.6 µM (active); in test [11], 8.22 µM (active); with A549, 19.8 µM (active); in test [14], 1.38 µM (active). Also, the EC50 in test [10] is 9.33 µM (active); in test [12] it was 12 µM (active); in test [15], 11 µM (active). Further, in test [13], the IC50 was > 20 µM (inactive). For the same compound, the CC50 in test [16] was 9.08 µM (active).

Consider `Nc1nc2[nH]cnc2c(=S)[nH]1` [THIOGUANINE], for which the IC50 in [17] is 0.373 µM (active); in test [18], 0.402 µM (active); in [19] it was 4.4 µM (active); in test [20], > 10 µM (inactive); in test [21], > 10 µM (inactive); in test [22], 0.108 µM (active). For the same compound, the IC50 in test [24] was 0.0493 µM (active); in [25], 0.163 µM (active); in test [26] it was 0.139 µM (active); in test [27], 0.343 µM (active). Further, the GI50 was 0.281 µM (active) in the test on SN12K1, 0.0762 µM (active) in the test with P388 and 0.181 µM (active) in the test with P388/ADR. Moreover, the AC50 in [23] is 1.99 µM (active).

For `O=C1NC[C@@H](Cc2ccc(O)cc2)N(CCc2cc(C(F)(F)F)cc(C(F)(F)F)c2)C1=O`, the IC50 in test [28] was 9.75 µM (active); in [29] it was > 66.6 µM (inactive); in [30], > 122 µM (inactive); in test [31], 82.2 µM (inactive).

Take `C=CCn1c(C)cc(C(=O)Cn2ncc(Cl)c(Cl)c2=O)c1C`: the AC50 in test [32] was 5.68 µM (active); in test [36] it was 9.97 µM (active). Moreover, the IC50 in test [33] was 5.14 µM (active). In addition, the figures for the EC50 in [34] and in test [35] were 2.12 µM (active) and 3.08 µM (active), respectively.

For `COc1cccc(CN2CCCCN3[C@H](CO)[C@@H](c4ccc(C#Cc5cccnc5)cc4)[C@H]3C2)c1`, the AC50 in [2] was 24 µM (active); in test [3], 0.859 µM (active); in [4] it was 0.934 µM (active); in test [5], 14 µM (active); in test [6] it was 0.56 µM (active); in test [7] it was 2.04 µM (active).
